Drawing on publication PMC5902538, “Metabolic benefits of 1-(3-(4-(o-tolyl)piperazin-1-yl)propyl)pyrrolidin-2-one: a non-selective α-adrenoceptor antagonist” (Journal of Endocrinological Investigation, 2017), this text covers IC50 for 1 compound.

Common to all, as to assay type: cell-based
One assay deals with T1, α2B-adrenoceptor (Homo sapiens, UniProt P18089).
T1 construct: gene ADRA2B
T1 sequence (P18089 1-450): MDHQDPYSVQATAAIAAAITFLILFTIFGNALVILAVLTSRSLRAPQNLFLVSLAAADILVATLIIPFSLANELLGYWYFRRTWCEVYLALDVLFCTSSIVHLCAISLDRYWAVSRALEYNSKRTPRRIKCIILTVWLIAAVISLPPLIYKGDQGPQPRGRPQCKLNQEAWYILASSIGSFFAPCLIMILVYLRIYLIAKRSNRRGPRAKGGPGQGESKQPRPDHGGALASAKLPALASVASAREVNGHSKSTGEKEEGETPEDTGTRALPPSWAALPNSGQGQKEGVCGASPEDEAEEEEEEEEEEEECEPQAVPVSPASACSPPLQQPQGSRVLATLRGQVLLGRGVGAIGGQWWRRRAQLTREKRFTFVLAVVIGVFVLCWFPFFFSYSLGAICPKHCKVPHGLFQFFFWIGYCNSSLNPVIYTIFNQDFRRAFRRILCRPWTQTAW
Put plainly: intrinsic activity (antagonist) assay in ready-to-use cells stably expressing the receptor (Perkin Elmer).

The target in a further assay is T2, α1B-adrenoceptor (Homo sapiens, UniProt P35368).
T2 construct: gene ADRA1B
T2 sequence (P35368 1-520): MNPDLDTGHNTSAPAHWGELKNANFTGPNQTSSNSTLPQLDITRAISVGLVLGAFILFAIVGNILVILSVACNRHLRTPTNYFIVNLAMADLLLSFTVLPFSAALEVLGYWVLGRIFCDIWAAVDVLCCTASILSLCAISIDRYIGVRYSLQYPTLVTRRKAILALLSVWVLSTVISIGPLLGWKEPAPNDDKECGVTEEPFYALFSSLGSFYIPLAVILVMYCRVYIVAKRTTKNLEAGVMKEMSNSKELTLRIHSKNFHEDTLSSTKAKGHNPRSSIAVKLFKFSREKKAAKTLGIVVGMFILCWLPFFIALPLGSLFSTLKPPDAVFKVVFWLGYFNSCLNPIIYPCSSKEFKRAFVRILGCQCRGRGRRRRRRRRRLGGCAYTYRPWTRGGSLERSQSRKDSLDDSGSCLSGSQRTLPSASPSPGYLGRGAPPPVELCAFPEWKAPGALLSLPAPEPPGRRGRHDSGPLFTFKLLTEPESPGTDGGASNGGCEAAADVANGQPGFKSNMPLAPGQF
The description is as above.

In the next assay the target is T3, α1A-adrenoceptor (Homo sapiens, UniProt P35348).
T3 construct: gene ADRA1A
T3 sequence (P35348 1-466): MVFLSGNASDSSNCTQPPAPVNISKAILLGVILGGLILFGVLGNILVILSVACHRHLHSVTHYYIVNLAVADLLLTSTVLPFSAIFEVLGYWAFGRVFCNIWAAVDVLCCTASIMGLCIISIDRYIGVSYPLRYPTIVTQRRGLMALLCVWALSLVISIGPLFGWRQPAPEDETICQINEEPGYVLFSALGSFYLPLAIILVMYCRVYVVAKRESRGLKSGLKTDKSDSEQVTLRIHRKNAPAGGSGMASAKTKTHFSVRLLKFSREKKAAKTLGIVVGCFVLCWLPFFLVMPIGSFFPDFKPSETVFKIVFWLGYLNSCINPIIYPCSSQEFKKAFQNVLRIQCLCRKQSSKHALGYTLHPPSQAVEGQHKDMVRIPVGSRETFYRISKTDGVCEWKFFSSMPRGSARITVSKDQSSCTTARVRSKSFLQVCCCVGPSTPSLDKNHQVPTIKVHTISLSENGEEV
Kind of assay: intrinsic activity (antagonist) assay in ready-to-use cells stably expressing the receptor (Invitrogen).

In another assay the target is T4, α2A-adrenoceptor (Homo sapiens, UniProt P08913).
T4 construct: gene ADRA2A
T4 sequence (P08913 1-465): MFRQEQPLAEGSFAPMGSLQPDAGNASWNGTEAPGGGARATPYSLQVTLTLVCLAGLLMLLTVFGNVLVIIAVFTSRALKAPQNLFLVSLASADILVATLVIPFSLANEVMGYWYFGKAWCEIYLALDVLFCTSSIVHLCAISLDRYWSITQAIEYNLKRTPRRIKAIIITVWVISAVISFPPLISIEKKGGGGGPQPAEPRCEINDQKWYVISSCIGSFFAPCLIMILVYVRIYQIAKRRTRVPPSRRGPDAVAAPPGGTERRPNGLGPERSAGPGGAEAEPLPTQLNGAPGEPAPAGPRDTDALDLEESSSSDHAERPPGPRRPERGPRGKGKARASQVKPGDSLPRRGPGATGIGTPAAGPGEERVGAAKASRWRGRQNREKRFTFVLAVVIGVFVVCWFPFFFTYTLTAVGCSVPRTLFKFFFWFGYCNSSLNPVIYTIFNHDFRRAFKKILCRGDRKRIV
Described as above.

By IC50 is commonly meant the concentration at which inhibition is half-maximal. A high value points to weaker potency in that assay. Regarding `Cc1ccccc1N1CCN(CCCN2CCCC2=O)CC1` [EP-47, 1-(3-(4-(o-tolyl)piperazin-1-yl)propyl)pyrrolidin-2-one], the IC50 was found to be 2070 ± 690 nM at α2B-adrenoceptor, 32.6 ± 0.69 nM on α1B-adrenoceptor, 42.5 ± 11.2 µM at α1A-adrenoceptor and 213 ± 32 nM against α2A-adrenoceptor.
